The test system of one test is naïve human CD8 T cells. As to the kind of experiment: Human CD8 T cells IFN-γ assay.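 Further: Naïve human CD8 T cells stimulated with plate-bound anti-CD3 and soluble anti-CD28, IFN-γ in supernatant quantified by AlphaLISA and converted to pg/mL.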 Type of test: cell-based. Particulars: read-out: HuCD8 INFG Normalized EC50.
The next test concerns Human venous whole blood. As to the kind of experiment: Human whole blood IFN-γ assay.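 Further: blood from healthy donors exposed to compound for 1 h before stimulation with anti-CD3 and anti-CD28 at 1 µg/mL each, IFN-γ quantified in supernatant by AlphaLISA.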 The conditions noted are these: human whole blood, read-out: INFg Whole Blood Normalized Agonist EC50. The test is classed as cell-based.
A further test concerns the target T1, human DGKα (Homo sapiens, UniProt P23743).
T1 construct: TVMV protease cleavage site (C); Hexa-His (C); made in house; host or cells: Sf9 insect cells (baculovirus, Bac-to-Bac)
As to the kind of experiment: DGKα LIPGLO assay (extruded liposome substrate), in vitro DGK inhibition. Type of test: biochemical. Particulars: read-out: DGKa LIPGLO IC50.

Another test has as its target T2, human DGKζ (Homo sapiens, UniProt Q13574).
T2 construct: TVMV protease cleavage site (C); Hexa-His (C); made in house; host or cells: Sf9 insect cells (baculovirus, Bac-to-Bac)
As to the kind of experiment: DGKζ LIPGLO assay (extruded liposome substrate), in vitro DGK inhibition. The test is classed as biochemical. The conditions noted are these: read-out: DGKz LIPGLO IC50.

[1] abbreviates: Homo sapiens, T-cell, 20 h, naïve human CD8 T cells, anti-CD3 plus anti-CD28, 3 μM reference compound = 100% activation.
[2] abbreviates: Homo sapiens, 24 h, anti-CD3 plus anti-CD28, 24 hours, 3 μM reference compound = 100% activation.
The mark [3] stands for this setting: naïve human CD8 T cells, anti-CD3 plus anti-CD28, 3 μM reference compound = 100% activation.
Setting [4] is: anti-CD3 plus anti-CD28, 24 hours, 3 μM reference compound = 100% activation.
Setting [5] is: normalized to 3 μM reference compound with anti-CD3 plus anti-CD28 as 100% activation.
The mark [6] stands for this setting: Homo sapiens, 24 h, normalized to 3 μM reference compound with anti-CD3 plus anti-CD28 as 100% activation.
[7] abbreviates: Homo sapiens, T-cell, 20 h, normalized to 3 μM reference compound with anti-CD3 plus anti-CD28 as 100% activation.

Where two headings read alike, the source gives them in different places.

T1 sequence (P23743 with tags, fused parts or gaps): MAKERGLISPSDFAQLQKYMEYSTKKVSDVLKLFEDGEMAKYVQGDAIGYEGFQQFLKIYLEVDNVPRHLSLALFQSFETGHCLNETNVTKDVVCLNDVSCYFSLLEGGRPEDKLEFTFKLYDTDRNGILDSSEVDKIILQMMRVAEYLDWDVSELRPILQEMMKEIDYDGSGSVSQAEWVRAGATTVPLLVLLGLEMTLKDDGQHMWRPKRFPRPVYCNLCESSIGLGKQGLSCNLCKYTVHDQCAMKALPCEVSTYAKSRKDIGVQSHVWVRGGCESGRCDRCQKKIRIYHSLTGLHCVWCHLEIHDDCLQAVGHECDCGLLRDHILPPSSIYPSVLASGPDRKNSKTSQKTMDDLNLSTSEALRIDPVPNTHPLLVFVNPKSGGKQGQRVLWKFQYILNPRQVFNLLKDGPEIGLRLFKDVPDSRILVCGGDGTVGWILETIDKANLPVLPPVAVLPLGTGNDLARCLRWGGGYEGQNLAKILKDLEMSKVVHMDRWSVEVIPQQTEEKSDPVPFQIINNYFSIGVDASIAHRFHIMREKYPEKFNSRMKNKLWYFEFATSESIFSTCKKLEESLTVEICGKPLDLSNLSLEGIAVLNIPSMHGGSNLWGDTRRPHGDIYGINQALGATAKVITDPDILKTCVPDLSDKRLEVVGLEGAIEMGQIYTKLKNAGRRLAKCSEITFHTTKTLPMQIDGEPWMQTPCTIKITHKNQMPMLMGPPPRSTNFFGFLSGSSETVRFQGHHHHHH
T2 sequence (Q13574 with tags, fused parts or gaps isoform Q13574-4): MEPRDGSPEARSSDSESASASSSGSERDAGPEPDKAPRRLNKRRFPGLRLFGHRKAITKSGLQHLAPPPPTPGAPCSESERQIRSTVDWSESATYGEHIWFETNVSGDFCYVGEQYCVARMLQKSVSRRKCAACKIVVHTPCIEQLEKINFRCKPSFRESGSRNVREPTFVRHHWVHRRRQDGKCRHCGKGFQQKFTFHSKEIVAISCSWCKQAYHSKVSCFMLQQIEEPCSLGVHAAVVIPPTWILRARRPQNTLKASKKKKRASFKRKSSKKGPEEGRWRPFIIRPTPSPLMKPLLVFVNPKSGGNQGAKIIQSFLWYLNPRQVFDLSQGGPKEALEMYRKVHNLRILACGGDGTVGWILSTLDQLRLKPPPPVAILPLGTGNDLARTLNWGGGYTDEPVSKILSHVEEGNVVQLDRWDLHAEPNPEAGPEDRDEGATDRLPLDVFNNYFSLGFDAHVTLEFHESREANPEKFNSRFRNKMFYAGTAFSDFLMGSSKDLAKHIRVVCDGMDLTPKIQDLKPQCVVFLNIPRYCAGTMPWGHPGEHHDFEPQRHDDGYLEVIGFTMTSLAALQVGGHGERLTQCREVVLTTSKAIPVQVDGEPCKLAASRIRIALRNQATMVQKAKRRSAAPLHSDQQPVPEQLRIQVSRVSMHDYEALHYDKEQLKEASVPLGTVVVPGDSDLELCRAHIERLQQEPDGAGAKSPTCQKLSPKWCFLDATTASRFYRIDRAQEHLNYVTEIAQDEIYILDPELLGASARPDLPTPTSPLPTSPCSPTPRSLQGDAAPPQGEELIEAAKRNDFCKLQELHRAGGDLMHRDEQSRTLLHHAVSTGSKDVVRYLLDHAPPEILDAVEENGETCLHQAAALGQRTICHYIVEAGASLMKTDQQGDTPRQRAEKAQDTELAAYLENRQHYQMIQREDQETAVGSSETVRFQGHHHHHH
Method for Human venous whole blood: Human Whole Blood IFN-γ Assay
Human venous whole blood (22.5 μL per well), obtained from healthy donors, was pre-treated with compounds for one hour at 37° C. in a humidified 95% air/5% CO2 incubator. The blood was stimulated with 2.5 μL anti-human CD3 and anti-CD28 mAb at a final concentration of 1 μg/mL each for 24 hours at 37° C. IFN-γ in the supernatants was measured using AlphLISA kit (Cat # AL217).

On to `C[C@@H]1CN(c2cc(=O)n(C)c3ccc(C#N)nc23)[C@@H](C)CN1C(c1ccc(F)cc1)c1nc(C2CCOCC2)no1` (single isomer, unassigned) [Example 739], for which the 50% effective concentration (EC50) in the test on naïve human CD8 T cells (setting [1]) turned out to be 52 nM; with Human venous whole blood (setting [2]) it was 190 nM. The IC50 at human DGKα (DGKα liposome (LIPGLO) assay) was 130 nM; on human DGKζ (DGKζ liposome (LIPGLO) assay), 760 nM.
`C[C@@H]1CN(c2cc(=O)n(C)c3ccc(C#N)nc23)[C@@H](C)CN1C(c1ccc(F)cc1)c1nc(-c2ccc(F)cc2)no1` (single isomer, unassigned) [Example 741]: the concentration giving a half-maximal response (EC50) was found to be 3.7 nM with naïve human CD8 T cells (setting [3]) and 210 nM with Human venous whole blood (setting [2]). Also, the figures for the IC50 at human DGKα (DGKα liposome (LIPGLO) assay) and on human DGKζ (DGKζ liposome (LIPGLO) assay) were 870 nM and 1400 nM, respectively.
As for `C[C@@H]1CN(c2cc(=O)n(C)c3ccc(C#N)nc23)[C@@H](C)CN1C(c1ccc(F)cc1)c1nc(-c2ccc(F)cc2)no1` (single isomer, unassigned) [Example 742], the EC50 stood at 1.5 nM in the test with naïve human CD8 T cells (setting [3]) and 140 nM in the test on Human venous whole blood (setting [4]). Also, the results for the IC50 at human DGKα (DGKα liposome (LIPGLO) assay) and on human DGKζ (DGKζ liposome (LIPGLO) assay) were 150 nM and 790 nM, respectively.
Turning to `C[C@@H]1CN(c2c(C#N)c(=O)n(C)c3ccc(C#N)nc23)CCN1C(c1ccc(F)cc1)c1ccc(C(F)(F)F)cn1` (single isomer, unassigned) [Example 896], the EC50 came to 150 nM in the test on naïve human CD8 T cells (setting [1]) and 210 nM with Human venous whole blood (setting [4]). Besides, the IC50 turned out to be 190 nM at human DGKα (DGKα liposome (LIPGLO) assay) and 600 nM on human DGKζ (DGKζ liposome (LIPGLO) assay).
The matching figures for `Cc1cccc(C(c2ccc(F)cc2)N2CCN(c3c(C#N)c(=O)n(C)c4ccc(C#N)nc34)C[C@H]2C)n1` (single isomer, unassigned) [Example 906]: 67 nM, 810 nM, 1000 nM and 940 nM.
In the same order, the values of `Cc1ccc(C(c2ccc(F)cc2)N2CCN(c3c(C#N)c(=O)n(C)c4ccc(C#N)nc34)C[C@H]2C)nc1` (single isomer, unassigned) [Example 915] are 100 nM, 550 nM, 740 nM and 1300 nM.
In the same order, the values of `C[C@@H]1CN(c2c(C#N)c(=O)n(C)c3ccc(C#N)nc23)CCN1C(c1ccc(F)cc1)c1ccccn1` (single isomer, unassigned) [Example 918] are 130 nM, 380 nM, 52 nM and 380 nM.
With `C[C@@H]1CN(c2c(C#N)c(=O)n(C)c3ccc(C#N)nc23)CCN1C(c1ccc(F)cc1)c1cccc(C(F)(F)F)n1` (single isomer, unassigned) [Example 922], the EC50 in the test with naïve human CD8 T cells (setting [1]) came out at 160 nM; in the test on Human venous whole blood (setting [4]), 430 nM. In addition, the IC50 is 1500 nM at human DGKα (DGKα liposome (LIPGLO) assay) and 780 nM at human DGKζ (DGKζ liposome (LIPGLO) assay).
In the same order, the values of `C[C@@H]1CN(c2c(C#N)c(=O)n(C)c3ccc(C#N)nc23)CCN1C(c1cccc(F)c1)c1ccc(F)cn1` (single isomer, unassigned) [Example 925] are 91 nM, 710 nM, 2500 nM and 2800 nM.
For the compound `CC[C@H]1CN(C(c2ccc(Cl)cc2)c2ccc(F)cn2)[C@H](CC)CN1c1cc(=O)n(C)c2ccc(C#N)nc12` (single isomer, unassigned) [Example 1033], the EC50 came to 190 nM in the test with naïve human CD8 T cells (setting [5]) and 120 nM with Human venous whole blood (setting [6]). The IC50 stood at 98 nM on human DGKα (liposome (LIPGLO) assay) and 59 nM at human DGKζ (liposome (LIPGLO) assay).
With `CC[C@H]1CN(C(c2ccc(Cl)cc2)c2ccc(F)cn2)[C@H](CC)CN1c1cc(=O)n(C)c2ccc(C#N)nc12` (single isomer, unassigned) [Example 1034], the EC50 in the test on naïve human CD8 T cells (setting [5]) came out at 17 nM; with Human venous whole blood (setting [5]) it was 230 nM. The half-maximal inhibitory concentration (IC50) was determined as 64 nM on human DGKα (liposome (LIPGLO) assay) and 340 nM on human DGKζ (liposome (LIPGLO) assay).
On to `CC[C@H]1CN(C(c2ccc(F)cc2)c2ncccc2F)[C@H](CC)CN1c1cc(=O)n(C)c2ccc(C#N)nc12` (single isomer, unassigned) [Example 1037], for which the EC50 in the test on naïve human CD8 T cells (setting [7]) worked out at 14 nM; in the test on Human venous whole blood (setting [5]), 130 nM. The IC50 at human DGKα (liposome (LIPGLO) assay) is 49 nM; on human DGKζ (liposome (LIPGLO) assay) it was 280 nM.
Turning to `CC[C@H]1CN(C(c2ccc(F)cc2)c2ncccc2F)[C@H](CC)CN1c1cc(=O)n(C)c2ccc(C#N)nc12` (single isomer, unassigned) [Example 1038], the figures for the concentration giving a half-maximal response (EC50) with naïve human CD8 T cells (setting [5]) and with Human venous whole blood (setting [5]) were 21 nM and 280 nM, respectively. The IC50 on human DGKα (liposome (LIPGLO) assay) was 77 nM; at human DGKζ (liposome (LIPGLO) assay), 850 nM.
For `CC[C@@H]1CN(c2cc(=O)n(C)c3ccc(C#N)nc23)[C@@H](C)CN1C(c1ccc(F)cc1)c1ccc(C#N)cc1` (single isomer, unassigned) [Example 1102], the EC50 in the test on naïve human CD8 T cells (setting [7]) was found to be 31 nM; with Human venous whole blood (setting [6]), 220 nM. The IC50 came out at 640 nM at human DGKα (liposome (LIPGLO) assay) and 1400 nM at human DGKζ (liposome (LIPGLO) assay).
Take `CC[C@@H]1CN(c2cc(=O)n(C)c3ccc(C#N)nc23)[C@@H](C)CN1C(c1ccc(F)cc1)c1ccc(C#N)cc1` (single isomer, unassigned) [Example 1103]: the concentration for a half-maximal effect (EC50) in the test on naïve human CD8 T cells (setting [5]) worked out at 21 nM; in the test on Human venous whole blood (setting [5]) it was 260 nM. Also, the IC50 came to 250 nM at human DGKα (liposome (LIPGLO) assay) and 270 nM at human DGKζ (liposome (LIPGLO) assay).
Regarding `CC[C@H]1CN(C(C)c2ccc(F)cc2)[C@H](C)CN1c1cc(=O)n(C)c2ccc(C#N)nc12` (single isomer, unassigned) [Example 1135], the half-maximal effective concentration (EC50) in the test with naïve human CD8 T cells (setting [7]) amounted to 22 nM; in the test with Human venous whole blood (setting [5]) it was 320 nM. The IC50 on human DGKα (liposome (LIPGLO) assay) was 18 nM; on human DGKζ (liposome (LIPGLO) assay) it was 360 nM.
Consider `CC(C)[C@H]1CN(c2cc(=O)n(C)c3ccc(C#N)nc23)CCN1C(c1ccc(F)cc1)c1ccc(F)cc1` [Example 10, (S)-8-(4-(bis(4-fluorophenyl)methyl)-3-isopropylpiperazin-1-yl)-5-methyl-6-oxo-5,6-dihydro-1,5-naphthyridine-2-carbonitrile], for which the EC50 with naïve human CD8 T cells (setting [7]) was found to be 150 nM; in the test with Human venous whole blood (setting [6]) it was 5000 nM. For the same compound, the IC50 amounted to 97000 nM at human DGKα (liposome (LIPGLO) assay) and 5100 nM at human DGKζ (liposome (LIPGLO) assay).
In the same order, the values of `CC(C)[C@H]1CN(c2c(C#N)c(=O)n(C)c3ccc(C#N)nc23)CCN1C(c1ccc(F)cc1)c1ccc(F)cc1` [Example 12, (S)-8-(4-(bis(4-fluorophenyl)methyl)-3-isopropylpiperazin-1-yl)-5-methyl-6-oxo-5,6-dihydro-1,5-naphthyridine-2,7-dicarbonitrile] are 10000 nM, 13000 nM, 2700 nM and 58000 nM.
Consider `C[C@@H]1CN(c2c(F)c(=O)n(C)c3ccc(C#N)nc23)CCN1C(c1ccc(Cl)cc1)c1ccc(Cl)cc1` [Example 34, (R)-8-(4-(bis(4-chlorophenyl)methyl)-3-methylpiperazin-1-yl)-7-fluoro-5-methyl-6-oxo-5,6-dihydro-1,5-naphthyridine-2-carbonitrile], for which the EC50 stood at 180 nM in the test on naïve human CD8 T cells (setting [7]) and 1300 nM in the test with Human venous whole blood (setting [6]). The IC50 at human DGKα (liposome (LIPGLO) assay) is 690 nM; at human DGKζ (liposome (LIPGLO) assay), 510 nM.
On to `Cn1c(=O)cc(N2CCN(C(c3ccc(F)cc3)c3ccc(F)cc3)C(C#N)C2)c2nc(C#N)ccc21` (centres unmarked) [Example 43, 8-(4-(bis(4-fluorophenyl)methyl)-3-cyanopiperazin-1-yl)-5-methyl-6-oxo-5,6-dihydro-1,5-naphthyridine-2-carbonitrile], for which the EC50 in the test with naïve human CD8 T cells (setting [7]) was found to be 87 nM; in the test with Human venous whole blood (setting [6]) it was 1200 nM. Besides, the results for the IC50 on human DGKα (liposome (LIPGLO) assay) and on human DGKζ (liposome (LIPGLO) assay) were 6200 nM and 3100 nM, respectively.
Regarding `COC(=O)C1CN(c2c(C#N)c(=O)n(C)c3ccc(Br)nc23)CCN1C(c1ccc(F)cc1)c1ccc(F)cc1` (centres unmarked) [Example 49, Methyl 1-(bis(4-fluorophenyl)methyl)-4-(6-bromo-3-cyano-1-methyl-2-oxo-1,2-dihydro-1,5-naphthyridin-4-yl)piperazine-2-carboxylate], the EC50 in the test with naïve human CD8 T cells (setting [7]) was 490 nM; with Human venous whole blood (setting [6]) it was 6300 nM. The IC50 at human DGKα (liposome (LIPGLO) assay) came out at 25000 nM; at human DGKζ (liposome (LIPGLO) assay), 8700 nM.
In the same order, the values of `COC(=O)C1CN(C(c2ccc(F)cc2)c2ccc(F)cc2)CCN1c1c(C#N)c(=O)n(C)c2ccc(C#N)nc12` (centres unmarked) [Example 114, Methyl 4-(bis(4-fluorophenyl)methyl)-1-(3,6-dicyano-1-methyl-2-oxo-1,2-dihydro-1,5-naphthyridin-4-yl)piperazine-2-carboxylate] are 57 nM, 490 nM, 420 nM and 1600 nM.
The matching figures for `COC(=O)C1CN(C(c2ccc(F)cc2)c2ccc(F)cc2)CCN1c1c(C#N)c(=O)n(C)c2ccc(Br)nc12` (centres unmarked) [Example 115, Methyl 4-(bis(4-fluorophenyl)methyl)-1-(6-bromo-3-cyano-1-methyl-2-oxo-1,2-dihydro-1,5-naphthyridin-4-yl)piperazine-2-carboxylate]: 390 nM, 2000 nM, 1000 nM and 8800 nM.

The term EC50 denotes the concentration that produces a half-maximal response. As a reminder, the IC50 is the point on the concentration scale where inhibition reaches its midpoint.

The values above are taken from patent US10669272B2, “Substituted naphthyridinone compounds useful as T cell activators” (BRISTOL-MYERS SQUIBB COMPANY, priority 2018, dated 2020).
